The assay has as its target T1, PDGF-receptor beta enzyme comprising the tyrosine kinase domain (Homo sapiens, UniProt P09619).
T1 construct: from amino acid 545 to 1106 of GenBank Access NO: AAA36427
The assay is described as follows: Inhibition of PDGF-receptor kinase activity (cell-free, PLC1 peptide, 33P Flashplate). The note with it: PDGF-R kinase activity; for inhibition at 10 µM: compound at 10 uM, read-out: Percent Inhibition @ 10 uM; for IC50: read-out: IC50. It counts as biochemical. Summed up: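 Recombinant kinase domain (aa 545–1106) phosphorylated a biotinylated PLC1 peptide with 5 μM ATP plus 33P-γ-ATP, in Tris pH 8, MgCl2, Na3VO4 and 1 mM DTT, for 60 min at 30 °C. Retained 33P was counted after washing. IC50 is the concentration halving activity versus no-inhibitor reactions.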

The structures appear in SMILES notation.

T1 sequence (P09619 545-1106): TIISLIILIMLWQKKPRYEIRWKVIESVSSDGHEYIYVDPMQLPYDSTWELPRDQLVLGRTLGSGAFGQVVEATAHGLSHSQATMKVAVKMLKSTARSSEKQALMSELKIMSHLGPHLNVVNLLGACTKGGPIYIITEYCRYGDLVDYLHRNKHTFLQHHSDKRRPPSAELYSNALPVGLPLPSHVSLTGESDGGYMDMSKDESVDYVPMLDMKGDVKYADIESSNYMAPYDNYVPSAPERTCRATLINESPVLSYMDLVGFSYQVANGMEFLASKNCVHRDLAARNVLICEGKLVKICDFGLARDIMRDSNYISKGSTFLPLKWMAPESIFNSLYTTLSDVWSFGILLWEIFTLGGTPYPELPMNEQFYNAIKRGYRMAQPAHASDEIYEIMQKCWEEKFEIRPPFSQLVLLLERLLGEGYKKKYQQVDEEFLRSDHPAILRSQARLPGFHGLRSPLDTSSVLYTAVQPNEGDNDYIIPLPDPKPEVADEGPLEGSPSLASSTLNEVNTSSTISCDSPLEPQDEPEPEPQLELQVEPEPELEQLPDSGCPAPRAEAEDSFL

On to `CC(C)Oc1cc2c(cc1OC(C)C)C(C)c1c-2n[nH]c1Nc1ccc(F)cc1` (centres unmarked) [Compound 356, (6,7-Diisopropoxy-4-methyl-2,4-dihydro-indeno[1,2-c]pyrazol-3-yl)-(4-fluoro-phenyl)-amine], for which the inhibition at 10 µM was found to be 70% and the IC50 came to 1950 nM.

Regarding `COc1cc2c(cc1F)Cc1c-2n[nH]c1Nc1cccc(F)c1` [Compound 357, (6-Fluoro-7-methoxy-2,4-dihydro-indeno[1,2-c]pyrazol-3-yl)-(3-fluoro-phenyl)-amine], the inhibition at 10 µM came out at 98.5% and the IC50 worked out at 9.42 nM.

Consider `Oc1cc2c(cc1O)-c1n[nH]c(Nc3cccc(F)c3)c1C2` [Compound 362, 3-(3-Fluoro-phenylamino)-2,4-dihydro-indeno[1,2-c]pyrazole-6,7-diol], for which the inhibition at 10 µM worked out at 80.5% and the IC50 turned out to be 784 nM.

Turning to `COc1cc2c(cc1F)Cc1c-2n[nH]c1Nc1cccnc1` [Compound 364, (6-Fluoro-7-methoxy-2,4-dihydro-indeno[1,2-c]pyrazol-3-yl)-pyridin-3-yl-amine], the inhibition at 10 µM amounted to 100% and the IC50 was 15.1 nM.

On to `CCOc1cc2c(cc1OCCCO)-c1n[nH]c(Nc3cccc(F)c3)c1C2` [Compound 365, 3-[6-Ethoxy-3-(3-fluoro-phenylamino)-2,4-dihydro-indeno[1,2-c]pyrazol-7-yloxy]-propan-1-ol], for which the inhibition at 10 µM amounted to 99.5% and the half-maximal inhibitory concentration (IC50) turned out to be 11.3 nM.

In the case of `CCOc1cc2c(cc1OCCCO)-c1n[nH]c(Nc3cccc(OC)c3)c1C2` [Compound 366, 3-[6-Ethoxy-3-(3-methoxy-phenylamino)-2,4-dihydro-indeno[1,2-c]pyrazol-7-yloxy]-propan-1-ol], the inhibition at 10 µM was determined as 100% and the IC50 was 12.1 nM.

Take `CCOc1cc2c(cc1OCCCO)-c1n[nH]c(Nc3cccc(Cl)c3)c1C2` [Compound 367, 3-[3-(3-Chloro-phenylamino)-6-ethoxy-2,4-dihydro-indeno[1,2-c]pyrazol-7-yloxy]-propan-1-ol]: the inhibition at 10 µM is 97% and the concentration for half-maximal inhibition (IC50) stood at 8.14 nM.

Take `CCOc1cc2c(cc1OCCCO)-c1n[nH]c(Nc3ccc(F)c(Cl)c3)c1C2` [Compound 368, 3-[3-(3-Chloro-4-fluoro-phenylamino)-6-ethoxy-2,4-dihydro-indeno[1,2-c]pyrazol-7-yloxy]-propan-1-ol]: the inhibition at 10 µM was found to be 89.5% and the IC50 came to 62.9 nM.

As for `OCCCOc1cc2c(cc1OCCCO)-c1n[nH]c(Nc3cccnc3)c1C2` [Compound 372, 3-[7-(3-Hydroxy-propoxy)-3-(pyridin-3-ylamino)-2,4-dihydro-indeno[1,2-c]pyrazol-6-yloxy]-propan-1-ol], the inhibition at 10 µM turned out to be 100% and the IC50 came to 15.5 nM.

Regarding `CCOc1cccc(Nc2[nH]nc3c2Cc2cc(OCC)c(OCC)cc2-3)c1` [Compound 375, (6,7-Diethoxy-2,4-dihydro-indeno[1,2-c]pyrazol-3-yl)-(3-ethoxy-phenyl)-amine], the inhibition at 10 µM came out at 96.5% and the IC50 amounted to 103 nM.

For `COc1cc2c(cc1OC)-c1n[nH]c(Nc3cccnc3Cl)c1C2` [Compound 377, (2-Chloro-pyrid-3-yl)-(6,7-dimethoxy-2,4-dihydro-indeno[1,2-c]pyrazol-3-yl)-amine], the inhibition at 10 µM was determined as 99% and the IC50 was 8.57 nM.

Turning to `Cc1ccccc1CNc1[nH]nc2c1Cc1cc(F)ccc1-2` [Compound 378, (6-Fluoro-2,4-dihydro-indeno[1,2-c]pyrazol-3-yl)-(2-methyl-benzyl)-amine], the inhibition at 10 µM stood at 94.5% and the IC50 is 467 nM.

Consider `COc1cc2c(cc1OCC(O)CO)Cc1c-2n[nH]c1NCc1ccccc1F` (centres unmarked) [Compound 387, 3-[3-(2-Fluoro-benzylamino)-7-methoxy-2,4-dihydro-indeno[1,2-c]pyrazol-6-yloxy]-propane-1,2-diol], for which the inhibition at 10 µM stood at 100% and the IC50 was 11.6 nM.

In the case of `COc1cc2c(cc1OCC(O)CN1CCCC1)Cc1c-2n[nH]c1NCc1c(Cl)cccc1Cl` (centres unmarked) [Compound 390, 1-[3-(2,6-Dichloro-benzylamino)-7-methoxy-2,4-dihydro-indeno[1,2-c]pyrazol-6-yloxy]-3-pyrrolidin-1-yl-propan-2-ol], the inhibition at 10 µM is 99% and the IC50 was 2.03 nM.

`Clc1cccc(Nc2[nH]nc3c2Cc2c(OCCCN4CCOCC4)cccc2-3)c1` [Compound 392, (3-Chloro-phenyl)-[5-(3-morpholin-4-yl-propoxy)-2,4-dihydro-indeno[1,2-c]pyrazol-3-yl]-amine]: the inhibition at 10 µM came to 80% and the IC50 was determined as 153 nM.

With `Fc1cccc(Nc2[nH]nc3c2Cc2c(OCCCN4CCOCC4)cccc2-3)c1` [Compound 393, (3-Fluoro-phenyl)-[5-(3-morpholin-4-yl-propoxy)-2,4-dihydro-indeno[1,2-c]pyrazol-3-yl]-amine], the inhibition at 10 µM is 94.5% and the IC50 worked out at 174 nM.

Regarding `CCOc1cccc(Nc2[nH]nc3c2Cc2c(OCCCN4CCOCC4)cccc2-3)c1` [Compound 394, (3-Ethoxy-phenyl)-[5-(3-morpholin-4-yl-propoxy)-2,4-dihydro-indeno[1,2-c]pyrazol-3-yl]-amine], the inhibition at 10 µM amounted to 91% and the IC50 came to 329 nM.

In the case of `COc1cc2c(cc1OC)-c1nn(C(=O)Nc3cccc(F)c3)c(Nc3cccc(F)c3)c1C2` [Compound 395, 3-(3-Fluoro-phenylamino)-6,7-dimethoxy-4H-indeno[1,2-c]pyrazole-2-carboxylic acid (3-fluoro-phenyl)-amide], the inhibition at 10 µM came out at 88% and the 50% inhibitory concentration (IC50) was 686 nM.

In the case of `COc1cc2c(cc1OCC(O)CN1CCCC1)Cc1c-2n[nH]c1NCc1ccccc1F` (centres unmarked) [Compound 397, 1-[3-(2-Fluoro-benzylamino)-7-methoxy-2,4-dihydro-indeno[1,2-c]pyrazol-6-yloxy]-3-pyrrolidin-1-yl-propan-2-ol], the inhibition at 10 µM turned out to be 92% and the concentration for half-maximal inhibition (IC50) turned out to be 7.7 nM.

For the compound `c1cncc(Nc2[nH]nc3c2Cc2sccc2-3)c1` [Compound 402, (5,7-Dihydro-1-thia-4,5-diaza-cyclopenta[a]pentalen-6-yl)-pyridin-3-yl-amine], the inhibition at 10 µM was determined as 90% and the concentration for half-maximal inhibition (IC50) worked out at 196 nM.

As to `Clc1cccc(Nc2[nH]nc3c2Cc2sccc2-3)c1` [Compound 403, (3-Chloro-phenyl)-(5,7-dihydro-1-thia-4,5-diaza-cyclopenta[a]pentalen-6-yl)-amine], the inhibition at 10 µM came out at 96% and the IC50 is 85.9 nM.

Regarding `Fc1ccc(Nc2[nH]nc3c2Cc2sccc2-3)cc1Cl` [Compound 404, (3-Chloro-4-fluoro-phenyl)-(5,7-dihydro-1-thia-4,5-diaza-cyclopenta[a]pentalen-6-yl)-amine], the inhibition at 10 µM was 74.5% and the half-maximal inhibitory concentration (IC50) was determined as 1110 nM.

Turning to `CCOc1cccc(Nc2[nH]nc3c2Cc2sccc2-3)c1` [Compound 405, (5,7-Dihydro-1-thia-4,5-diaza-cyclopenta[a]pentalen-6-yl)-(3-ethoxy-phenyl)-amine], the inhibition at 10 µM stood at 94.5% and the half-inhibitory concentration (IC50) is 63.5 nM.

As to `COc1cc2c(cc1OC)-c1nn(C(C)=O)c(Nc3cccc(F)c3)c1C2` [Compound 406, 1-[3-(3-Fluoro-phenylamino)-6,7-dimethoxy-4H-indeno[1,2-c]pyrazol-2-yl]-ethanone], the inhibition at 10 µM is 96% and the IC50 came to 75 nM.

`CCOC(=O)CNC(=O)n1nc2c(c1Nc1cccc(F)c1)Cc1cc(OC)c(OC)cc1-2` [Compound 407, {[3-(3-Fluoro-phenylamino)-6,7-dimethoxy-4H-indeno[1,2-c]pyrazole-2-carbonyl]-amino}-acetic acid ethyl ester]: the inhibition at 10 µM stood at 39% and the IC50 was determined as 9880 nM.

For the compound `COc1cc2c(cc1OC)-c1nn(COC(=O)C(C)(C)C)c(Nc3cccc(F)c3)c1C2` [Compound 408, 2,2-Dimethyl-propionic acid 3-(3-fluoro-phenylamino)-6,7-dimethoxy-4H-indeno[1,2-c]pyrazol-2-ylm ethyl ester], the inhibition at 10 µM stood at 83% and the IC50 was 687 nM.

`COc1cc2c(cc1OC)-c1c(c(Nc3cccc(F)c3)nn1COC(=O)C(C)(C)C)C2` [Compound 409, 2,2-Dimethyl-propionic acid 3-(3-fluoro-phenylamino)-6,7-dimethoxy-4H-indeno[1,2-c]pyrazol-1-ylm ethyl ester]: the inhibition at 10 µM came to 85.5% and the IC50 turned out to be 108 nM.

Take `COc1cc2c(cc1OC)-c1n[nH]c(Nc3cccc(F)c3Br)c1C2` [Compound 410, (2-Bromo-3-fluoro-phenyl)-(6,7-dimethoxy-2,4-dihydro-indeno[1,2-c]pyrazol-3-yl)-amine]: the inhibition at 10 µM stood at 83.5% and the IC50 is 1080 nM.

With `CCOC(=O)CCNC(=O)n1nc2c(c1Nc1ccccc1)Cc1cc(OC)c(OC)cc1-2` [Compound 411, 3-[(6,7-Dimethoxy-3-phenlylamino-4H-indeno[1,2-c]pyrazole-2-carbonyl)-amino]-propionic acid ethyl ester], the inhibition at 10 µM turned out to be 14.5% and the IC50 worked out at 82.3 nM.

Take `COC(=O)C(CC(C)C)NC(=O)n1nc2c(c1Nc1cccc(F)c1)Cc1cc(OC)c(OC)cc1-2` (centres unmarked) [Compound 412, 2-{[3-(3-Fluoro-phenylamino)-6,7-dimethoxy-4H-indeno[1,2-c]pyrazole-2-carbonyl]-amino}-4-methyl-pentanoic acid methyl ester]: the inhibition at 10 µM amounted to 44% and the IC50 worked out at 12700 nM.

`COC(=O)C(NC(=O)n1nc2c(c1Nc1cccc(F)c1)Cc1cc(OC)c(OC)cc1-2)C(C)C` (centres unmarked) [Compound 413, 2-{[3-(3-Fluoro-phenylamino)-6,7-dimethoxy-4H-indeno[1,2-c]pyrazole-2-carbonyl]-amino}-3-methyl-butyric acid methyl ester]: the inhibition at 10 µM is 71% and the IC50 stood at 1140 nM.

The values are drawn from US7196110B2, “N-substituted tricyclic 3-aminopyrazoles as inhibitors for the treatment of cell proliferative disorders” (Janssen Phamaceutica N.V., priority 2002, dated 2007).
